Where “and” joins values, the source holds several entries; their conditions need not be identical. Equal values may be shown once.
Experiments:
plasma [1] = assay: Anticoagulant activity: prothrombin time (PT); type: biochemical, human; settings: 20 μl sample + 80 μl plasma, test material g/dL (Asp 7.5 mg/Ml)
Protocol: (§1) Antithrombotic (anticoagulant) activity was evaluated according to a previously reported method. Each of thromborel S, actin and thrombin, which are reagents for Sysmex CA-1500 for analysis of PT, aPTT and TT, was mounted in Sysmex CA-1500 (Siemens Healthcare, Germany) which is an automated blood coagulation test device. According to the automated procedure of the test device, clotting time (sec) (prothrombin time (PT), activated partial thromboplastin time (aPTT) and thrombin time (TT)) was measured. A sufficient amount of a sample for each of the three analyses was about 400 uL of an 80:20 mixture of plasma and a test substance.
(§2) The isolated plasma was used in an experiment in a fresh state within 5-6 hours.
(§3) In this experiment, for the relative comparison of the measured clotting time (sec) (PT, aPTT and TT) between test groups, clotting time prolongation (%) relative to triple distilled water (purified water) that is a normal control test sample was statistically analyzed. For statistical analysis, the […] anticoagulant activities of test materials were comparatively analyzed using SPSS IBM version 21.0 by one-way ANOVA at p<0.05, and significance comparison between groups was performed by Duncan's test.
(§4) The aspirin solution was immediately used at room temperature in a light-shielded state or was cold-stored.
(§5) As a control, aspirin was used, and as a vehicle control, triple distilled water (purified water) was used instead of the sample.

plasma [2] = assay: Anticoagulant activity: activated partial thromboplastin time (aPTT); type: biochemical, human; settings: 20 μl sample + 80 μl plasma, test material g/dL (Asp 7.5 mg/Ml)
Protocol: as §1, §2, §3, §4, §5

plasma [3] = assay: Anticoagulant activity: thrombin time (TT); type: biochemical, human; settings: 20 μl sample + 80 μl plasma, test material g/dL (Asp 7.5 mg/Ml)
Protocol: as §1, §2, §3, §4, §5

[4] = Body weight and body weight gain of high-fat diet mice; type: in vivo, mice (C57BL/6); settings: for Body weight gain, Mean / Body weight, Mean: sample in drinking water, metformin 250 mg/kg
Protocol: (§6) Using 8-week-old male mice (C57BL/6) (purchased from CoreTech), anti-diabetic candidate materials were evaluated using a GTT (Glucose Tolerance Test) that is a typical method for diagnosis of diabetes.
(§7) Mice were housed at a temperature of 22±2° C. and a relative humidity of 55-60% with 12-hr light/12-hr dark cycles. Five animals were allotted to each group, and mice from the same mother were grouped into one group, because male mice tend to fight together.
(§8) As feed, high-fat diet (60% of calories from fat; Research Diet Inc., New Brunswick, N.J.) and water were fed ad libitum for 10 weeks. Herein, the water fed contained the samples prepared in Examples 1-2 (3), 2-1, 2-4-1, 2-4-2 and 2-5. As a positive control, metformin (M-072, Sigma) (250 mg/kg) was used, and as a control, the samples prepared in Comparative Examples 1-1, 2-3-2, 2-5-1, 2-5-2 and 2-6 were used.
(§9) For reference, each of the samples prepared in Examples 2-4-1, 2-4-2 and 2-5 was set to the amount to be taken by an adult (60 kg) for 3 days, and the amount was converted into a mouse dose (12-fold/kg, see the US NIH guidance), thereby preparing animal feed. Namely, the amount to be taken by an adult (60 kg) for 3 days is 180-day dose/kg, which corresponds to 15-day dose/kg for mice. Thus, the amount corresponds to 750-day dose/mouse (20 g), because the average weight of mice is about 20 g. Thus, one mouse was allowed to take 1/750 of the prepared sample each day.
(§10) In addition, each of the samples prepared in Examples 1-2 (3) and 2-1 was set to the amount to be taken by an adult (60 kg) for 2 days, and the amount was converted into a mouse dose (12-fold/kg, see the US NIH guidance), thereby preparing animal feed. Namely, the amount to be taken by an adult (60 kg) for 2 days is 120-day dose/kg, which corresponds to 10-day dose/kg for mice. Thus, the amount corresponds to 500-day dose/mouse (20 g), because the average weight of mice is about 20 g. Thus, one mouse was allowed to take 1/500 of the prepared sample each day.
The diet intake and the body weight gain were measured weekly for 8 weeks. The body weight and the diet intake were measured immediately before first drug administration, and then measured at one-week intervals.
(§11) Meanwhile, experimental analysis results were expressed as mean±S.E.M., and the significance between test groups was statistically processed using Student T-TEST, and then the significance was verified at *P<0.05.

[5] = Glucose tolerance test (GTT) in high-fat diet mice; type: in vivo, mice (C57BL/6); settings: for Glucose level (mg/dl), Mean: GTT, high-fat diet mice
Protocol: as §6, §7, §8, §9, §10
At 8 weeks of high-fat diet feeding, a glucose tolerance test (GTT) was performed. For 8 hours for the test, mice were fasted. Then, blood was sampled from the tail vein, and initial blood glucose levels were measured with a blood glucose meter (AUTO-CHEK, Diatech Korea). Then, glucose was administered intraperitoneally to the mice at a concentration of 1 g/kg, and after 30 min, 60 min, 90 min and 120 min, blood was sampled from the mice, followed by measurement of blood glucose levels (each group consisting of five animals).
as §11

[6] = Blood biochemistry (triglyceride, AST, ALT) in high-fat diet mice; type: in vivo, mice (C57BL/6); settings: blood
Protocol: as §6, §8
In blood biochemistry, insulin (AKRIN-011T, Shibayagi, Japan), glucose (AM202, Asan Pharmaceutical Co., Ltd., Korea), triglyceride (AM157, Asan Pharmaceutical Co., Ltd.), total cholesterol (AM202, Asan Pharmaceutical Co., Ltd.), AST and ALT (Asan Pharmaceutical Co., Ltd.) were analyzed using enzymatic assay kits.
At 10 weeks of high-fat diet feeding, the mice were sacrificed by cervical dislocation to obtain serum. For histological examination, the liver, white adipose tissue (WAT), brown adipose tissue (BAT) and kidney were fixed with formalin (50-00-0, Junsei, Japan), and the remaining organs were stored at −70° C. The blood sampled from the heart was coagulated to obtain serum which was then stored at −70° C.
as §11

[7] = Scanning electron microscope (SEM) analysis, particle size; type: physicochemical
From the text: For reference, an analysis instrument and analysis conditions are as follows. (1) Analysis instrument: HITACHI (S-2700), Japan (2) Electron gun: Tungsten filament type (3) Resolution: 4.0 nm (4) Accelerating voltage: 15.0 kV.

[8] = Thermogravimetric analysis (TGA); type: physicochemical; settings: first-order differentiation of TGA; N2, 20° C./min
Protocol: For reference, an analysis instrument and analysis conditions are as follows. (1) Analysis instrument: TGA 7 (Perkin-Elmer) (2) Atmosphere: N2 gas (3) Heating rate: 20° C./min (4) Range: 50 to 600° C.

Structure (SMILES): CC(=O)Oc1ccccc1C(=O)O [Asp, aspirin]
- PT, clotting time prolongation relative to purified water, Mean (plasma [1]; Table 2): 9.90%
- PT, clotting time prolongation relative to purified water, Mean (plasma [1]; Table 3): 17.51%
- PT, clotting time prolongation relative to purified water, Mean (plasma [1]; Table 4): 26.02%
- aPTT, clotting time prolongation relative to purified water, Mean (plasma [2]; Table 2): 7.31%
- aPTT, clotting time prolongation relative to purified water, Mean (plasma [2]; Table 3): 16.28%
- aPTT, clotting time prolongation relative to purified water, Mean (plasma [2]; Table 4): 29.82%
- TT, clotting time prolongation relative to purified water, Mean (plasma [3]; Table 2): 13.59%
- *TT, clotting time prolongation relative to purified water, Mean (plasma [3]; Table 3, values excluding one sample showing an extreme value): 20.96%
- TT, clotting time prolongation relative to purified water, Mean (plasma [3]; Table 4): 23.95%

Structure (SMILES): NCCS(=O)(=O)O [DT19, taurine]
- Body weight gain, Mean ([4]; 1 week): 2.20 g
- Body weight, Mean ([4]; 1 week): 21.46 g
- Body weight gain, Mean ([4]; 2 weeks): 4.36 g
- Body weight, Mean ([4]; 2 weeks): 23.62 g
- Body weight gain, Mean ([4]; 3 weeks): 5.34 g
- Body weight, Mean ([4]; 3 weeks): 24.60 g
- Body weight gain, Mean ([4]; 4 weeks): 6.52 g
- Body weight, Mean ([4]; 4 weeks): 25.78 g
- Body weight gain, Mean ([4]; 5 weeks): 8.12 g
- Body weight, Mean ([4]; 5 weeks): 27.38 g
- Body weight gain, Mean ([4]; 6 weeks): 7.94 g
- Body weight, Mean ([4]; 6 weeks): 27.20 g
- Body weight gain, Mean ([4]; 7 weeks): 8.80 g
- Body weight, Mean ([4]; 7 weeks): 28.06 g
- Body weight, Mean ([4]; 8 weeks): 28.78 g
- Body weight, Mean ([4]; before administration): 19.26 g
- Glucose level (mg/dl), Mean ([5]; 0 min): 111.80 mg/dL
- Glucose level (mg/dl), Mean ([5]; 30 min): 298.00 mg/dL
- Glucose level (mg/dl), Mean ([5]; 60 min): 295.60 mg/dL
- Glucose level (mg/dl), Mean ([5]; 90 min): 189.40 mg/dL
- Glucose level (mg/dl), Mean ([5]; 120 min): 119.00 mg/dL
- Fasting glucose level ([5]; at 8 weeks of high-fat diet feeding, 8 hours fasted): lower than that of the mice administered with high-fat diet (HFD), and were similar to the blood glucose levels of normal mice
- Glucose control ability in GTT ([5]; at 8 weeks of high-fat diet feeding, glucose 1 g/kg intraperitoneally, 30-120 min): significantly higher than that of the group administered with HFD alone
- ALT level (IU/L), Mean [6]: 25.47 IU/L
- AST level (IU/L), Mean [6]: 118.63 IU/L
- Triglyceride level (mg/dl), Mean [6]: 116.20 mg/dL
- Average particle size [7]: 222.06 μm
- Median particle size [7]: 192.92 μm
- Final decomposition temperature [8]: 394 °C
- First decomposition temperature [8]: 362 °C

Structure (SMILES): O=C(CO)[C@@H](O)[C@H](O)[C@H](O)CO [Fruc 6.2, fructose]
- PT, clotting time prolongation relative to purified water, Mean (plasma [1]; Table 4): 0.54%
- aPTT, clotting time prolongation relative to purified water, Mean (plasma [2]; Table 4): −0.20%
- TT, clotting time prolongation relative to purified water, Mean (plasma [3]; Table 4): 13.19%

Structure (SMILES): O=C(CO)[C@@H](O)[C@H](O)[C@H](O)CO [Fruc 12.4, fructose]
- PT, clotting time prolongation relative to purified water, Mean (plasma [1]; Table 4): 0.54%
- aPTT, clotting time prolongation relative to purified water, Mean (plasma [2]; Table 4): 0.58%
- TT, clotting time prolongation relative to purified water, Mean (plasma [3]; Table 4): 30.07%

Structure (SMILES): CN(C)C(=N)N=C(N)N [Metformin, metformin]
- Body weight (g), Mean ([4]; 1 week): 23.550 g and 25.094 g
- Body weight gain, Mean ([4]; 1 week): 1.70 g
- Body weight, Mean ([4]; 1 week): 21.00 g
- Body weight (g), Mean ([4]; 2 weeks): 23.608 g and 26.344 g
- Body weight gain (g), Mean ([4]; 2 weeks): 2.503 g and 2.406 g
- Body weight gain, Mean ([4]; 2 weeks): 3.48 g
- Body weight, Mean ([4]; 2 weeks): 22.78 g
- Body weight (g), Mean ([4]; 3 weeks): 25.125 g and 27.430 g
- Body weight gain (g), Mean ([4]; 3 weeks): 4.020 g and 3.492 g
- Body weight gain, Mean ([4]; 3 weeks): 4.54 g
- Body weight, Mean ([4]; 3 weeks): 23.84 g
- Body weight (g), Mean ([4]; 4 weeks): 25.705 g and 27.708 g
- Body weight gain (g), Mean ([4]; 4 weeks): 4.600 g and 3.770 g
- Body weight gain, Mean ([4]; 4 weeks): 5.88 g
- Body weight, Mean ([4]; 4 weeks): 25.18 g
- Body weight (g), Mean ([4]; 5 weeks): 27.198 g and 28.572 g
- Body weight gain (g), Mean ([4]; 5 weeks): 6.093 g and 4.634 g
- Body weight gain, Mean ([4]; 5 weeks): 6.42 g
- Body weight, Mean ([4]; 5 weeks): 25.72 g
- Body weight (g), Mean ([4]; 6 weeks): 28.355 g and 28.772 g
- Body weight gain (g), Mean ([4]; 6 weeks): 7.250 g and 4.834 g
- Body weight gain, Mean ([4]; 6 weeks): 7.04 g
- Body weight, Mean ([4]; 6 weeks): 26.34 g
- Body weight (g), Mean ([4]; 7 weeks): 27.368 g and 28.468 g
- Body weight gain (g), Mean ([4]; 7 weeks): 6.263 g and 4.530 g
- Body weight gain, Mean ([4]; 7 weeks): 8.22 g
- Body weight, Mean ([4]; 7 weeks): 27.52 g
- Body weight (g), Mean ([4]; 8 weeks): 29.343 g and 27.608 g
- Body weight gain, Mean ([4]; 8 weeks): 8.90 g
- Body weight, Mean ([4]; 8 weeks): 28.20 g
- Body weight (g), Mean ([4]; before administration): 21.105 g and 23.938 g
- Body weight, Mean ([4]; before administration): 19.30 g
- Glucose level (mg/dl), Mean ([5]; 0 min): 144.20 mg/dL and 104.40 mg/dL
- Glucose level (mg/dl), Mean ([5]; 30 min): 386.40 mg/dL and 438.40 mg/dL
- Glucose level (mg/dl), Mean ([5]; 60 min): 301.40 mg/dL and 296.40 mg/dL
- Glucose level (mg/dl), Mean ([5]; 90 min): 194.40 mg/dL and 178.00 mg/dL
- Glucose level (mg/dl), Mean ([5]; 120 min): 135.20 mg/dL and 146.20 mg/dL
- Triglyceride level (mg/dl), Mean [6]: 62.99 mg/dL

From patent publication US20170340584A1 (priority 2014, published 2017)
